The record followed here is patent US11512073B2, “Benzimidazole derivatives, pharmaceutical composition comprising the same, and use thereof” (Chongqing University of Arts and Sciences, priority 2020, dated 2022).

Residues, ends and D or L forms follow the SMILES beside them. *: point of attachment. Cbz = O=C(OCc1ccccc1)*; CH2F = FC*

The experiment concerns TNBC cells. As to the kind of experiment: MTT cell viability assay, statements for both TNBC lines. The note with it: Z-VAD-FMK 20 μM with compound 7a 20 μM, 48 h. The format is cell-based, Human. The procedure: Compounds were dissolved in a hydrous dimethylsulfoxide (DMSO, Life technologies) to obtain a 50 mM stock solution, which was then added to the culture medium at a concentration range of 6.25-100 μM. […] Z-VAD-FMK was purchased from Selleckchem (Houston, Tex.); The reagents including 3-(4,5-dimethylthiazol-2-yl)-2,5-diphenyltetrazolium bromide (MTT), dimethyl sulfoxide (DMSO), penicillin, streptomycin, propidium iodide (PI) were purchased from Sigma-Aldrich (MO, USA); All the primary antibodies used in this study were from Cell Signaling Technology (MA, USA) and the secondary antibodies were from LI-COR Biosciences (NE, USA).
Human triple negative breast cancer cell lines MDA-MB-231 and MDA-MB-468 were purchased from the American Type Culture Collection (ATCC, VA, USA). These cells were cultured in high-glucose DMEM (Gibco, USA) supplemented with 10% fetal bovine serum (FBS, Gibco) and 1% penicillin/streptomycin (Gibco) at 37° C. in a humidified incubator containing 5% CO2.
The antiproliferative activity of compounds was measured with the MTT assay. […] The absorbance value was determined at 570 nm using a microplate reader (Bio-Tek, VT, USA). Data were analyzed by GraphPad Prism 6. […]
(Tetrazolium assays rely on reduction of a dye to a coloured formazan, in cell work by metabolically active cells.)

With `COC(=O)C[C@H](NC(=O)[C@H](C)NC(=O)[C@@H](NC(=O)OCc1ccccc1)C(C)C)C(=O)CF` [Z-VAD-FMK, reference compound] (Cbz-Val-Ala-Asp(OMe)-CH2F), the “rescue of compound 7a-induced apoptosis (cell viability)” value is “partially rescue cell apoptosis induced by compound 7a”.
